Series [1] has as its system non-senescent aortic endothelial (Endo Aort) cells and pre-adipocytes (Pread). As to the kind of experiment: Nutlin-3a toxicity, cell counts of non-senescent endothelial cells and pre-adipocytes. As to conditions: 0, 2.5, 10 μM, 11 days. In kind it is cell-based. As for the experimental part: Non-senescent aortic endothelial (Endo Aort) cells and pre-adipocytes (Pread) were also treated with varying concentrations (0, 2.5 μM, and 10 μM) of Nutlin-3a for a period of 11 days to assess Nutlin-3a toxicity, as described above. Cell counts were taken at the start at Day 0 (NS start) and at the end of Nutlin-3a treatment (NS 0). The difference between counts of cells not treated with Nutlin-3a on day 11 (NS 0) and cell counts from NS start reflects the cell growth over the indicated time period. […] Decrease in apparent survival between NS 0 and NS 2.5 and between NS 0 and NS 10 reflects a decrease in cell growth.

Series [2] relates to senescent cells in osteoarthritic joint of mice after ACL surgery. The series is described as follows: Osteoarthritis mouse model (ACL surgery), intra-articular treatment. In kind it is in vivo. As to conditions: for histopathology: destruction of the proteoglycan layer: Nutlin-3A in C57BL/6J, GCV 2.5 μg intra-articular in 3MR mice. As for the experimental part: Parallel studies were performed. One study investigated the effect of eliminating senescent cells with ganciclovir (GCV) in 3MR mice. Mice underwent surgery to cut the anterior cruciate ligament of one rear limb to induce osteoarthritis in the joint of that limb. During week 2 post-surgery, 3MR mice received 2.5 μg GCV to the operated knee by intra-articular injection, qd for 5 days, with a 2nd treatment (2.5 μg GCV qd for 5 days) during week 4 post-surgery. At the end of 4 weeks post-surgery, operated joints of the mice were monitored for presence of senescent cells, assessed for function, monitored for markers of inflammation, and underwent histological assessment.
In a parallel study, C57BL/6J mice underwent surgery to cut the anterior cruciate ligament of one rear limb to induce osteoarthritis in the joint of that limb. During week 3 and week 4 post-surgery, the mice were treated with 5.8 μg of Nutlin-3A (n=7) per operated knee by intra-articular injection, qod for 2 weeks. At the end of 4 weeks post-surgery, joints of the mice were monitored for presence of senescent cells, assessed for function, monitored for markers of inflammation, and underwent histological assessment.
Two control groups of mice were included in the studies performed: one group comprising C57BL/6J or 3MR mice that had undergone a sham surgery (n=3) (i.e., surgical procedures followed except for cutting the ACL) and intra-articular injections of vehicle parallel to the GCV-treated group; and one group comprising C57BL/6J or 3MR mice that had undergone an ACL surgery and received intra-articular injections of vehicle (n=5) parallel to the GCV-treated group.
RNA from the operated joints of mice from the Nutlin-3A treated mice was analyzed for expression of SASP factors (mmp3, IL-6) and senescence markers (p16). qRT-PCR was performed to detect mRNA levels. […] RNA from the operated joints of mice was also analyzed for expression of type 2 collagen and compared with expression of actin as a control.
Function of the limbs was assessed 4 weeks post-surgery by a weight bearing test to determine which leg the mice favored (FIG. 39). The mice were allowed to acclimate to the chamber on at least 3 occasions prior to taking measurements. Mice were maneuvered inside the chamber to stand with 1 hind paw on each scale. The weight that was placed on each hind limb was measured over a 3-second period. At least 3 separate measurements were made for each animal at each time point. The results were expressed as the percentage of the weight placed on the operated limb versus the contralateral unoperated limb.
The function of the limbs was also assessed at 4 weeks post-surgery by hotplate analysis to show sensitivity and reaction to pain stimulus. In brief, a mouse was placed on a hotplate at 55° C. When placed on the hot surface of the plate, mice will lift their paws and lick them (paw-lick response) due to attainment of pain threshold. The latency period for the hind limb response (paw-lick response) is recorded as response time.
Histopathology of osteoarthritis induced by ACL surgery illustrated that the proteoglycan layer was destroyed.

The test system of a further series is C57BL/6J mice. The series is described as follows: Rotarod motor coordination in 23 month old C57BL/6J mice. In kind it is in vivo, mouse. As for the experimental part:
A group of 34 C57BL/6J mice were tested for motor coordination in a rotarod at 23 months of age. Mice were tested for 4 consecutive days. Each session consisted of 4 runs in which the speed of the rotating rod increased from 4 to 40 rpm over 5 minutes. Mice were allowed to run until they fell. The latency to fall was recorded for each run, and averaged to obtain a single value for each session. Half of the mice were then treated with 50 mg/kg nutlin-3a for 14 consecutive days, via IP injection, while the rest of them were sham injected. 3 weeks after the last day of treatment, motor coordination was assessed following the described procedure.
Values higher than 1 correspond to an increase in motor coordination after treatment. The average of 4 runs for each animal and the average (±SEM) for each group are shown.
The average of 4 runs is shown for each day (±SEM).

Series [3] concerns paclitaxel treated p16-3MR mice. The series is described as follows: Chemotherapy related side effects: voluntary exercise (wheel counts) after paclitaxel in p16-3MR mice. In kind it is in vivo, mouse. As to conditions: ABT-263 100 mg/kg ip daily 7 days; ganciclovir 25 mg/kg ip daily 3 days. As for the experimental part: ABT-263 (100 mg/kg) was administered intraperitoneally daily for seven days after paclitaxel administration. Two days after the last dose of ABT-263, all groups of animals were housed in metabolic cages (promethion, sable systems international, Las Vegas, Nev.) to monitor voluntary exercise as determined by wheel counts. Data were collected and analyzed two days later. Clearance of senescent cells by ABT-263 and ganciclovir restored approximately 70% of wheel count reduction caused by chemotherapy treatment.

The subject of series [4] is p16-3MR mice fed a high fat diet. The series is described as follows: Glucose tolerance, insulin tolerance and body parameters in high fat fed p16-3MR mice. In kind it is in vivo, mouse.
Method: Groups of p16-3MR mice (n=9) were fed a high fat diet for four months mice or a regular chow diet. Animals were then treated with ganciclovir (3 rounds of 25 mg/kg ganciclovir administered daily for five consecutive days) or vehicle. A glucose bolus was given at time zero, and blood glucose was monitored at 20, 30, 60, and 120 minutes after delivering glucose to determine glucose disposal (see FIG. 69A). […] Insulin sensitivity was also determined (Insulin Tolerance Testing (ITT)). […] Changes in weight, body composition, and food intake were also monitored.

“Also recorded” adds a separate entry of the source.

As to `COc1ccc(C2=N[C@@H](c3ccc(Cl)cc3)[C@@H](c3ccc(Cl)cc3)N2C(=O)N2CCNC(=O)C2)c(OC(C)C)c1` [Nutlin-3a], the “toxicity to non-senescent aortic endothelial cells and pre-adipocytes (percent growth)” value in series [1] is listed as “reduces proliferation but is non-toxic”. Besides, the “senescent cells in the joint (p16, IL-6, MMP13 mRNA)” value in series [2] (5.8 μg per operated knee intra-articular qod for 2 weeks, 4 weeks post-surgery) was “clears senescent cells from the joint”. Also, the “weight bearing test (favoring the unoperated hind limb)” value in series [2] (4 weeks post-surgery) is given as “abrogates this effect”. Moreover, the “hotplate paw-lick response time” value in series [2] (55° C., 4 weeks post-surgery) is recorded as “decreases the response time in a significant manner; also recorded: reduces response time”. Besides, in series [2], the “histopathology: destruction of the proteoglycan layer” value was “completely abrogated this effect”. The “type 2 collagen expression in operated joints” value in series [2] (relative to actin, versus untreated OA surgery mice) is reported as “drives ab initio collagen production”. Further, in the series on C57BL/6J mice (50 mg/kg IP 14 days, after three days of training, p<0.05), the “rotarod performance (latency to fall)” value is “increased rotarod performance”. Further, the “ratio of latency to fall, fourth session after treatment / fourth baseline session” value in the series on C57BL/6J mice (p<0.01) is reported as “higher average ratio”. Further, the “rotarod performance over the training period” value with C57BL/6J mice (p<0.01, 2-way ANOVA) was “better performance”.

`Nc1nc(O)c2ncn(COC(CO)CO)c2n1` [ganciclovir]: the “histopathology: destruction of the proteoglycan layer” value in series [2] is given as “same impact on pathophysiology of osteoarthritis as Nutlin-3A”. Besides, the “restoration of wheel count reduction caused by chemotherapy treatment” value in series [3] was “approximately 70%”. The “insulin tolerance testing: decrease in blood glucose” value in series [4] (0, 14, 30, 60 and 120 minutes) was “greater decrease in blood glucose”. Also, the “glucose tolerance test AUC versus vehicle” value in series [4] (3 rounds of 25 mg/kg daily for five days) is recorded as “significantly lower”. Moreover, the “Hemoglobin A1c” value in series [4] (high fat diet) is “lower”. In series [4] (mouse, in vivo), the “body weight, body composition (percent of fat), food intake” value is reported as “did not alter”.

Source of the values: patent US20190022225A1, “PROTOCOL FOR INCREASING LIFE EXPECTANCY IN A TEST SUBJECT” (Mayo Foundation for Medical Education and Research, priority 2015, published 2019).
